Laboratory results as given in US11254696B2, “Dianilinopyrimidine compound for inhibiting kinase activity” (Shenzhen Targetrx, Inc., priority 2017, dated 2022).

Columns and labels:
[1] = Metabolic stability in rat liver microsomes; format: in vitro ADME; settings: SD, pH 7.4, 1 μM compound, 0.5 mg/mL protein; for microsomal CLint at 1 μM: read-out: CLint (uL/min/mg), Rat liver microsome experiment; for half-life at 1 μM: read-out: t1/2 (min), Rat liver microsome experiment
Protocol: (§1) Experiments in microsomes: Human liver microsomes: 0.5 mg/mL, Xenotech; Rat liver microsomes: 0.5 mg/mL, Xenotech; Coenzyme (NADPH/NADH): 1 mM, Sigma Life Science; Magnesium chloride: 5 mM, 100 mM phosphate buffer (pH 7.4).
(§2) Preparation of stock solution: Powder of the example compounds was accurately weighed and dissolved in DMSO to 5 mM. Preparation of phosphate buffer (100 mM, pH7.4): A pre-formulated 0.5M potassium dihydrogen phosphate (150 mL) was mixed with 0.5M dibasic potassium phosphate (700 mL). The pH of the mixture was adjusted to 7.4 with 0.5M dibasic potassium phosphate solution. The mixture was diluted 5-fold with ultrapure water before use, and magnesium chloride was added to obtain a phosphate buffer (100 mM) containing 100 mM potassium phosphate, 3.3 mM magnesium chloride, pH7.4. A NADPH regeneration system solution (containing 6.5 mM NADP, 16.5 mM G-6-P, 3 U/mL G-6-PD, 3.3 mM magnesium chloride) was prepared and placed on wet ice prior to use. Preparation of stop solution: acetonitrile solution containing 50 ng/mL propranolol hydrochloride and 200 ng/mL tolbutamide (internal standard). 25057.5 μL of phosphate buffer (pH 7.4) was taken into a 50 mL centrifuge tube, to which 812.5 μL human liver microsomes were added, and mixed to obtain a liver microsome dilution solution with a protein concentration of 0.625 mg/mL. 25057.5 μL of phosphate buffer (pH 7.4) was taken into a 50 mL centrifuge tube, to which 812.5 μL SD rat liver microsomes were added, and mixed to obtain a liver microsome dilution solution with a protein concentration of 0.625 mg/mL.
(§3) Incubation of the samples: The stock solution of the respective compound was respectively diluted to 0.25 mM with an aqueous solution containing 70% acetonitrile, and used as a working solution, ready for use. 398 μL of the dilution solution of human liver microsomes or rat liver microsome were added to a 96-well incubation plate (N=2), respectively, and 2 μL of 0.25 mM working solution was added and mixed.
(§4) Metabolic stability assay: 300 μL of pre-chilled stop solution was added to each well of a 96-well deep well plate and placed on ice as a stop plate. The 96 well incubation plate and NADPH regeneration system were placed in a 37° C. water bath box, shaken at 100 rpm and pre-incubated for 5 min. 80 μL of incubation solution was taken out from each well of the incubation plate and added to the stop plate, mixed, and replenished with 20 μL of NADPH regeneration system solution as a 0-min sample. 80 μL of NADPH regeneration system solution was added to each well of the incubation plate to start the reaction and start counting. […] Separately, 100 μL of the reaction solution was taken at 10, 30, and 90 min reaction, respectively, added to a stop plate, and vortexed for 3 minutes to terminate the reaction. The stop plate was centrifuged at 5000×g at 4° C. for 4 min. 100 μL of the supernatant was added to a 96-well plate to which 100 μL of distilled water was previously added, mixed, and analyzed by LC-MS/MS.
(§5) Data analysis: The peak areas of the corresponding compound and internal standard were detected by LC-MS/MS system, and the ratio of the peak area of the compound to the internal standard was calculated.

ALK[L1196M] (Ba/F3) [2] = target: T1, ALK[L1196M] (Ba/F3) (Homo sapiens, UniProt Q9UM73, L1196M, cells depend on it); test: Cytotoxicity test (CellTiter-Glo), BaF3 EML4-ALK L1196M; format: cell-based; settings: 72 hours, CellTiter-Glo; read-out: IC50(nM) ALK[L1196M] (Ba/F3)
T1 construct: IC50(nM) ALK[L1196M]; (Ba/F3); other: 72 hours, CellTiter-Glo; BaF3 [EMF4-AFK F1196M]; fused on or other part: Q9HC35 (Echinoderm microtubule-associated protein-like 4)
Protocol: (§6) The in vitro anti-proliferative activity of the compounds of the present disclosure against three types of cells that are cultured in vitro was tested by CellTiter-Glo method.
(§7) Cell lines: BaF3 parental; BaF3 [EML4-ALK] (From WuXi PharmaTech) and BaF3 [EMF4-AFK F1196M] (From WuXi PharmaTech); wherein, BaF3 parental was cultured in RPMI1640 medium containing 10 ng/ml IL-3, 10% fetal bovine serum, 100 U/ml penicillin, and 100 μg/ml streptomycin, BaF3 [EMF4-AFK] and BaF3 [EMF4-AFK F1196M] were cultured in RPMI1640 medium containing 10% fetal bovine serum, 100 U/ml penicillin, and 100 μg/ml streptomycin.
(§8) Reagents and materials: RPMI-1640 (GIBCO, Cat. No. A10491-01); fetal bovine serum (GIBCO, Cat. No. 10099141); 0.25% trypsin-EDTA (GIBCO, Cat. No. 25200); penicillin-streptomycin, liquid (GIBCO, Cat. No. 15140-122); DMSO (Sigma, Cat. No. D2650); CellTiter-Glo Test Kit (Promega, Cat. No. G7572), and 96-well plate (Corning, Cat. No. 3365).
(§9) 1. The test compounds were dissolved in DMSO to make stock solutions and subjected to a series gradient dilution to give solutions with 10-fold working concentration.
(§10) 2. The cells in the logarithmic growth phase were diluted with the culture solution to adjust to the specific cell concentration, 90 μi of cell suspension was added to the 96-well plate to make the cell density reach the specified concentration. The plate was incubated in a incubator at 37° C., containing 5% carbon dioxide gas overnight.
(§11) 3. 10 μl drug solutions were added to each well of the 96-well plate inoculated with cells. 10 concentrations of the compounds were tested starting from the highest concentration of 20 μM with a 3-fold series gradient dilution in duplicate.
(§12) 4. After continuously cultured for 72 hours, the cells were detected by CellTiter-Glo for the cell viability. The dose-effect curve was made using GraphPad Prism software and IC50 was calculated.

ALK[L1196M] (Ba/F3) [3] = test: as above; format: cell-based; settings: Ba/F3 cells
Protocol: as §6, §7, §8, §9, §10, §11, §12

ALK [L1196M] = ALK [L1196M] (Homo sapiens, UniProt Q9UM73, L1196M); test: Kinase inhibition assay, ALK [L1196M]; format: biochemical
Protocol: (§13) Compound preparation: The test compounds were dissolved in DMSO to make 20 mM stock solutions. The compounds were diluted in DMSO to 0.1 mM (a dilution with 100 times the final concentration) before use, and a 3-fold series gradient dilution with 11 concentrations was made. Dilutions with 4 times of the final concentration were prepared by diluting with buffer when dosing.
(§14) Kinase assay: after preparing the buffer solution, the enzyme was mixed with pre-diluted compounds with different concentrations, and placed at room temperature for 30 minutes in duplicate. The corresponding substrate and ATP were added thereto and reacted at room temperature for 60 minutes (both a negative and a positive control were set). After the reaction, antibody was added for detection, and after incubation at room temperature for 60 minutes, Evnvision detection was carried out, and data was collected. Data was analyzed and fit according to XLfit5 software. IC50 was calculated by the following formula: (IC50=[(ABS test−ABS begin)/(ABS control−ABS begin)]×100).

ALK [WT] = ALK [WT] (Homo sapiens, UniProt Q9UM73); test: Kinase inhibition assay, ALK [WT]; format: biochemical
Protocol: as §13, §14

[4] = Metabolic stability in human liver microsomes; format: in vitro ADME; settings: pH 7.4, 1 μM compound, 0.5 mg/mL protein; for microsomal CLint at 1 μM: read-out: CLint (uL/min/mg), Human liver microsome experiment; for half-life at 1 μM: read-out: t1/2 (min), Human liver microsome experiment
Protocol: as §1, §2, §3, §4, §5

BaF3 [EML4-ALK] [5] = target: T2, BaF3 [EML4-ALK] (Homo sapiens, UniProt Q9UM73); test: Cytotoxicity test (CellTiter-Glo), BaF3 [EML4-ALK]; format: cell-based; settings: 72 hours, CellTiter-Glo; read-out: IC50(nM) ALK (Ba/F3)
T2 construct: IC50(nM) ALK (Ba/F3); other: 72 hours, CellTiter-Glo; BaF3 [EML4-ALK]; fused on or other part: Q9HC35 (Echinoderm microtubule-associated protein-like 4)
Protocol: as §6, §7, §8, §9, §10, §11, §12

BaF3 [EML4-ALK] [6] = test: Cytotoxicity test (CellTiter-Glo), BaF3 [EML4-ALK]; format: cell-based; settings: Ba/F3 cells
Protocol: as §6, §7, §8, §9, §10, §11, §12

BaF3 parental = test: Cytotoxicity test (CellTiter-Glo), BaF3 parental; format: cell-based; settings: Mus musculus, 72 hours, read-out: IC50(nM) parental (Ba/F3)
Protocol: as §6, §7, §8, §9, §10, §11, §12

T1 sequence (Q9UM73 whole entry L1196M, the tested form may be a part): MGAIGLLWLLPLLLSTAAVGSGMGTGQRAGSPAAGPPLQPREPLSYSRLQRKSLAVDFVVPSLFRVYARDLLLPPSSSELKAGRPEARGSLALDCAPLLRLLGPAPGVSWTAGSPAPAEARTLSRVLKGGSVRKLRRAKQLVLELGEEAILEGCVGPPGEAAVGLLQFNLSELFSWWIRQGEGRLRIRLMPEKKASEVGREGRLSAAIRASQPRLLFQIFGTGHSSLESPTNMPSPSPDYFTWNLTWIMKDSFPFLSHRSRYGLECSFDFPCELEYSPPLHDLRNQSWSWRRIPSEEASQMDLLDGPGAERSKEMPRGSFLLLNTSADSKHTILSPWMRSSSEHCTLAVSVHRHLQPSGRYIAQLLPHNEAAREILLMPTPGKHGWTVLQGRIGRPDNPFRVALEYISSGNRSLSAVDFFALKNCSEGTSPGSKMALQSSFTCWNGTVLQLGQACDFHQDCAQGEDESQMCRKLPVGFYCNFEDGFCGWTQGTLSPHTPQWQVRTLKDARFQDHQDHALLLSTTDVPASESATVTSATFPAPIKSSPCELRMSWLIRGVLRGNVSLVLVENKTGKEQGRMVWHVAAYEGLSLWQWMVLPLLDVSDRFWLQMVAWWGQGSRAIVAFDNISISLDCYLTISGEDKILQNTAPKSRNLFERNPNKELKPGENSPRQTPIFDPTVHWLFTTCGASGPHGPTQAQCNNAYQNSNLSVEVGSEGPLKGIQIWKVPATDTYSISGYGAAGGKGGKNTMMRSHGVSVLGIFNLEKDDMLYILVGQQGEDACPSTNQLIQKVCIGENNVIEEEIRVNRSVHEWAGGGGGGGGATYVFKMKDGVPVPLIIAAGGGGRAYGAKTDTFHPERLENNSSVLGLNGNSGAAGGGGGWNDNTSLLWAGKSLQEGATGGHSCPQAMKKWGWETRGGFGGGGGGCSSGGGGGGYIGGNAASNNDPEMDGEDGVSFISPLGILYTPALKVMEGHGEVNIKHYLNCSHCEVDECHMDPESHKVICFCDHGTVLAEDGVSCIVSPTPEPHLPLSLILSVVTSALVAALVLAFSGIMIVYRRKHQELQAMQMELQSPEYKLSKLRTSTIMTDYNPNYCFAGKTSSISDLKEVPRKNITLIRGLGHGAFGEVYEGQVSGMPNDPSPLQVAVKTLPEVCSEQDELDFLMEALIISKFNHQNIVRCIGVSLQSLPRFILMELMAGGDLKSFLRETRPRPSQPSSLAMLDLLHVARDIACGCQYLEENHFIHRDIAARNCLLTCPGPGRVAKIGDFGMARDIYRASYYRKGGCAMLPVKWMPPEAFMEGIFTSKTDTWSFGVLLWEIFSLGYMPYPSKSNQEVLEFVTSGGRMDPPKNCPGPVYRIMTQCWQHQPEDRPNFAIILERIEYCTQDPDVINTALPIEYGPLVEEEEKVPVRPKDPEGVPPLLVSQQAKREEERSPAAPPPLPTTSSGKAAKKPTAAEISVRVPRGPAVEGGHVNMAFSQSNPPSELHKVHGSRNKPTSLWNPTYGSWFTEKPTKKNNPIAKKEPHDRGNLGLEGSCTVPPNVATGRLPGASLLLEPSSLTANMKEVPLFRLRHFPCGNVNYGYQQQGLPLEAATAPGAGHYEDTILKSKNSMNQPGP
ALK [L1196M], sequence (Q9UM73 19-1620 L1196M): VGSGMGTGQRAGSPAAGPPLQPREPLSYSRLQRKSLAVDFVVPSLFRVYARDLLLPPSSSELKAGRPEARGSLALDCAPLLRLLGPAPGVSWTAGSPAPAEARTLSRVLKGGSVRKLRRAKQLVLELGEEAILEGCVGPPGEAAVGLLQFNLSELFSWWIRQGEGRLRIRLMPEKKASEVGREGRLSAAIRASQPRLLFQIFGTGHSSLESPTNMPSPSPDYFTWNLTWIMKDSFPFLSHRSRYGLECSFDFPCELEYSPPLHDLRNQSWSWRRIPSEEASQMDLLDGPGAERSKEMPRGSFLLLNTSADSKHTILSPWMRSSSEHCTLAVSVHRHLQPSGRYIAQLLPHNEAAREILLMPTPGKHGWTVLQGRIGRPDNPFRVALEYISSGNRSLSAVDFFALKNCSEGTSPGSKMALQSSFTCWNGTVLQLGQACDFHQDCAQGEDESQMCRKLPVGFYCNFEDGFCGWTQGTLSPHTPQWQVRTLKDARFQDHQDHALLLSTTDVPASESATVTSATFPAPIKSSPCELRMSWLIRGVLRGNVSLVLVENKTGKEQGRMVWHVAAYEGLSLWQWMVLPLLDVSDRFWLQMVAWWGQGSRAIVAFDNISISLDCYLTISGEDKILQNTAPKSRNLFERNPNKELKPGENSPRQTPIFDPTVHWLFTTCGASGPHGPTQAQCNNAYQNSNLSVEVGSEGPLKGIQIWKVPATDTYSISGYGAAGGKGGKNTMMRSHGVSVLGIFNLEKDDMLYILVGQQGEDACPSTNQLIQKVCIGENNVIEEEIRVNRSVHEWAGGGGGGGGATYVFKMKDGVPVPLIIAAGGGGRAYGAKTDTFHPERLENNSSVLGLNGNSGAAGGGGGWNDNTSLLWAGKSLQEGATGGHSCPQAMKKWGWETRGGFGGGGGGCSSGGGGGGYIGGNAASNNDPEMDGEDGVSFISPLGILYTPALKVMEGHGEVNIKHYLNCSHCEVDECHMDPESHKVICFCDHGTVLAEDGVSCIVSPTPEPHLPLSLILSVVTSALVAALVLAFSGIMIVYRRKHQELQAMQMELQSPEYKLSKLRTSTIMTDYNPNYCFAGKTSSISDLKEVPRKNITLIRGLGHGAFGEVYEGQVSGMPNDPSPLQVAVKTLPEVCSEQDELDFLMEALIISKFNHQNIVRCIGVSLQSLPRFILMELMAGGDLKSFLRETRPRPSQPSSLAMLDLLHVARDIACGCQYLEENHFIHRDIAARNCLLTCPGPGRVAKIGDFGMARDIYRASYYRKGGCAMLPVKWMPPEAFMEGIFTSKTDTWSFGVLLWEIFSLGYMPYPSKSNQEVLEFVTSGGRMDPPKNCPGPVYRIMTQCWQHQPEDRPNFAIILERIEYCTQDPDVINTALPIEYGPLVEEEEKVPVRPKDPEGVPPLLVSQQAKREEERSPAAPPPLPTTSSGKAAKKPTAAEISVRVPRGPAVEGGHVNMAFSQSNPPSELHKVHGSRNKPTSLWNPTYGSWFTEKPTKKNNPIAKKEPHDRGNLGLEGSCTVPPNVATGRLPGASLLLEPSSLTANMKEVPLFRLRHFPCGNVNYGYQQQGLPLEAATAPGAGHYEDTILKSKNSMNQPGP
ALK [WT], sequence (Q9UM73 19-1620): as the sequence (Q9UM73 19-1620 L1196M) above, with M1178L counted along it
T2 sequence (Q9UM73 whole entry, change not shown, the tested form may be a part): as the sequence (Q9UM73 whole entry L1196M, the tested form may be a part) above, with M1196L counted along it

| SMILES | microsomal CLint at 1 μM [1] | half-life at 1 μM [1] | IC50 (ALK [L1196M]) | IC50 (ALK [WT]) | microsomal CLint at 1 μM [4] | half-life at 1 μM [4] | GI50 (ALK[L1196M] (Ba/F3) [2]) | Selectivity parental/ALK[L1196M] (ALK[L1196M] (Ba/F3) [3]) | GI50 (BaF3 [EML4-ALK] [5]) | Selectivity parental/ALK (BaF3 [EML4-ALK] [6]) | IC50 (BaF3 parental) |
| --- | --- | --- | --- | --- | --- | --- | --- | --- | --- | --- | --- |
| COc1cc(C(C)N)ccc1Nc1ncc(Cl)c(Nc2ccccc2P(C)(C)=O)n1 (centres unmarked) [Example 7, (2-((2-((4-(1-aminoethyl)-2-methoxyphenyl)amino)-5-chloropyrimidin-4-yl)amino)phenyl)dimethylphosphine oxide] | 4.1 µL/min/mg | 340 min | 2 to 5 nM | 2 to 5 nM | 5.7 µL/min/mg | 244 min | 200 to 1000 nM | <50 | 50 to 100 nM | <50 | ≥ 1000 nM |
| COc1cc(C(C)(C)CN(C)C)ccc1Nc1ncc(Cl)c(Nc2ccccc2P(C)(C)=O)n1 [Example 12, (2-((5-chloro-2-((4-(1-(dimethylamino)-2-methylpropan-2-yl)-2-methoxyphenyl)amino)pyrimidin-4-yl)amino)phenyl)dimethylphosphine oxide] | 86.8 µL/min/mg | 16 min | 5 to 10 nM | 2 to 5 nM | 73.5 µL/min/mg | 18.9 min | 50 to 100 nM | <50 | 25 to 50 nM | 100 to 200 | ≥ 1000 nM |
| COc1cc(CCN2CCN(C)CC2)ccc1Nc1ncc(Cl)c(Nc2ccccc2P(C)(C)=O)n1 [Example 5, (2-((5-chloro-2-((2-methoxy-4-(2-(4-methylpiperazin-1-yl)ethyl)phenyl)amino)pyrimidin-4-yl)amino)phenyl)dimethylphosphine oxide] | 35.9 µL/min/mg | 38.6 min | ≤ 2 nM | ≤ 2 nM | 17.3 µL/min/mg | 80 min | 25 to 50 nM | 100 to 200 | < 25 nM | 200 to 500 | ≥ 1000 nM |
| COc1cc(CN(C)C)ccc1Nc1ncc(Cl)c(Nc2ccccc2P(C)(C)=O)n1 [Example 1, (2-((5-chloro-2-((4-((dimethylamino)methyl)-2-methoxyphenyl)amino)pyrimidin-4-yl)amino)phenyl)dimethylphosphine oxide] | 43.4 µL/min/mg | 31.9 min | 5 to 10 nM | 5 to 10 nM | 10.6 µL/min/mg | 131 min | 100 to 200 nM | <50 | 50 to 100 nM | <50 | ≥ 1000 nM |

Further lines, with some results ahead:

| microsomal CLint at 1 μM [1] | half-life at 1 μM [1] | IC50 (ALK [L1196M]) | IC50 (ALK [WT]) | microsomal CLint at 1 μM [4] | half-life at 1 μM [4] | SMILES | GI50 (ALK[L1196M] (Ba/F3) [2]) | Selectivity parental/ALK[L1196M] (ALK[L1196M] (Ba/F3) [3]) | GI50 (BaF3 [EML4-ALK] [5]) | Selectivity parental/ALK (BaF3 [EML4-ALK] [6]) | IC50 (BaF3 parental) |
| --- | --- | --- | --- | --- | --- | --- | --- | --- | --- | --- | --- |
| 9.1 µL/min/mg | 152 min | ≤ 2 nM | ≤ 2 nM | 11.7 µL/min/mg | 119 min | COc1cc(C(C)(C)N)ccc1Nc1ncc(Cl)c(Nc2ccccc2P(C)(C)=O)n1 [Example 13, (2-((2-((4-(2-aminopropan-2-yl)-2-methoxyphenyl)amino)-5-chloropyrimidin-4-yl)amino)phenyl)dimethylphosphine oxide] | 100 to 200 nM | <50 | 25 to 50 nM | <50 | ≥ 1000 nM |
| 11.7 µL/min/mg | 118 min | 5 to 10 nM | 5 to 10 nM | 21.5 µL/min/mg | 64.6 min | COc1cc(C(C)CN)ccc1Nc1ncc(Cl)c(Nc2ccccc2P(C)(C)=O)n1 (centres unmarked) [Example 16, (2-((2-((4-(1-aminopropan-2-yl)-2-methoxyphenyl)amino)-5-chloropyrimidin-4-yl)amino)phenyl)dimethylphosphine oxide] | 200 to 1000 nM | <50 | 200 to 1000 nM | 50 to 100 | ≥ 1000 nM |
| 17.6 µL/min/mg | 78.8 min | ≤ 2 nM | ≤ 2 nM | 20.7 µL/min/mg | 66.9 min | CNC(C)(C)c1ccc(Nc2ncc(Cl)c(Nc3ccccc3P(C)(C)=O)n2)c(OC)c1 [Example 15, (2-((5-chloro-2-((2-methoxy-4-(2-(methylamino)propan-2-yl)phenyl)amino)pyrimidin-4-yl)amino)phenyl)dimethylphosphine oxide] | 100 to 200 nM | <50 | 50 to 100 nM | <50 | ≥ 1000 nM |
